These are literature values, as cited in patent US8536378B2 (The Board of Trustees of the Leland Stanford Junior …, priority 2007, dated 2013).

One data set concerns latent HIV. The conditions noted are these: latently infected CD4+ T cells.
The conditions of data set [1]: compared with other phorbol esters such as PMA.
In data set [2] the test system is T-lymphoblastoid CEM-SS and C-8166 cell lines. Particulars: in vitro.
The conditions of data set [3]: estimate in reference note 20.
In a further data set the test system is latent HIV-1. Particulars: fold more potent than prostratin.

Turning to `CCCCCCCCCCCCCC(=O)O[C@@H]1[C@@H](C)[C@@]2(O)[C@@H](C=C(CO)C[C@]3(O)C(=O)C(C)=C[C@@H]23)[C@@H]2C(C)(C)[C@]12OC(C)=O` [PMA, phorbol 12-myristate-13-acetate, reference compound], in the data set on latent HIV, the “HIV gene expression / activation of latent HIV” value was “activate latent HIV”.

As to `CC(=O)O[C@@]12C[C@@H](C)[C@@]3(O)[C@@H](C=C(CO)C[C@]4(O)C(=O)C(C)=C[C@@H]34)[C@@H]1C2(C)C` [prostratin, 12-deoxyphorbol-13-acetate], the “HIV gene expression / activation of latent HIV” value with latent HIV is “induces HIV gene expression”. For the same molecule, in the data set on CD4 and CXCR4 receptors (CEM-SS and MT-4 cell lines), the “CD4 receptors on cell surfaces” value was “significantly reduced”. In data set [1], the tumor-promoting activity result is reported as “does not exhibit the tumor-promoting activity”. In addition, in data set [2] (CEM-SS and C-8166 cell lines), the “cytotoxicity: concentration up to which no sign of cytotoxicity was observed” value is above 25 µM. Further, the “prostratin concentration at which cell viability was restored to the level of uninfected controls” value in data set [2] (HIV-infected CEM-SS and C-8166 cell lines) was “approximately 1 μM”. Moreover, in data set [3], the estimated oral bioavailability is on record as around 28%.

Turning to `CC1=C[C@H]2[C@@]3(O)[C@H](C)C[C@]4(OC(=O)Cc5ccccc5)C([C@@H]3C=C(CO)C[C@]2(O)C1=O)C4(C)C` (stereo partly drawn) [DPP, 12-deoxyphorbol-13-phenylacetate], the “downregulation of CD4 and CXCR4 receptors” value in the data set on CD4 and CXCR4 receptors was “downregulates CD4 and CXCR4 receptors at nanomolar concentrations”. For the same molecule, the “potency in activating latent HIV-1 relative to prostratin” value with latent HIV-1 was 20-30 fold.
